We go through 23 compounds from ChEMBL document CHEMBL3244119, “Synthesis and hypoglycemic activity of S-acyl derivatives of 3-mercaptopicolinic acid” (J Med Chem, 1977).

SMILES strings stand for the structures.

In data set [1] the test system is Rattus norvegicus. Description: Hypoglycemic activity in 48 hrs fasted rat assessed as reduction in glucose level at 300 mg/kg, po measured after 1 hr. Format: functional. The arrangement: scale not given: the % may be the effect or the level left.
The subject of data set [2] is Rattus norvegicus. Description: Hypoglycemic activity in 48 hrs fasted rat assessed as reduction in glucose level at 300 mg/kg, po measured after 2 hrs. Also noted: scale not given: the % may be the effect or the level left. Format: functional.
The test system of data set [3] is Rattus norvegicus. Description: Hypoglycemic activity in 48 hrs fasted rat assessed as reduction in glucose level at 300 mg/kg, po measured after 4 hrs. In kind it is functional. Also noted: scale not given: the % may be the effect or the level left.
For data set [4], the system named is Rattus norvegicus. Description: Hypoglycemic activity in 48 hrs fasted rat assessed as reduction in glucose level at 125 mg/kg, po measured after 1 hr. Format: functional. The arrangement: scale not given: the % may be the effect or the level left.
Data set [5] relates to Rattus norvegicus. Description: Hypoglycemic activity in 48 hrs fasted rat assessed as reduction in glucose level at 125 mg/kg, po measured after 2 hrs. In kind it is functional. Also noted: scale not given: the % may be the effect or the level left.
For data set [6], the system named is Rattus norvegicus. Description: Hypoglycemic activity in 48 hrs fasted rat assessed as reduction in glucose level at 125 mg/kg, po measured after 4 hrs. Format: functional. Also noted: scale not given: the % may be the effect or the level left.
Data set [7] is described as follows: Half life of the compound at pH 8. In kind it is physicochemical.
Data set [8] can be described thus: Half life of the compound at pH 6. In kind it is physicochemical.
Data set [9] is described as follows: Stability of the compound assessed as rate of 3-mercaptopicolinic acid formation at 10 mg at pH 6 by DTNB method. In kind it is physicochemical.
Data set [10] in a line: Stability of the compound assessed as rate of 3-mercaptopicolinic acid formation at 10 mg at pH 8 by DTNB method. Format: physicochemical.
Data set [11] in a line: Stability of the compound in 3 N HCl at room temperature after 3.5 hrs by TLC. In kind it is physicochemical. Conditions: buffer.
Data set [12] is described as follows: Stability of the compound in 3 N HCl-ethanol […] measured after refluxing for 2.5 hrs by TLC. In kind it is physicochemical. Conditions: buffer.
Data set [13] relates to Rattus norvegicus. Description: Hypoglycemic activity in 48 hrs fasted rat assessed as reduction in glucose level at 150 mg/kg, po measured after 1 hr. In kind it is functional. Also noted: scale not given: the % may be the effect or the level left.
Data set [14] deals with Rattus norvegicus. Description: Hypoglycemic activity in 48 hrs fasted rat assessed as reduction in glucose level at 150 mg/kg, po measured after 2 hrs. Also noted: scale not given: the % may be the effect or the level left. Format: functional.
Data set [15] relates to Rattus norvegicus. Description: Hypoglycemic activity in 48 hrs fasted rat assessed as reduction in glucose level at 150 mg/kg, po measured after 4 hrs. Format: functional. The arrangement: scale not given: the % may be the effect or the level left.
Data set [16] in a line: Stability of the compound assessed as compound remaining at equilibrium at 10 mg at pH 6 by DTNB method. In kind it is physicochemical.
Data set [17] deals with Rattus norvegicus. Description: Hypoglycemic activity in 48 hrs fasted rat assessed as reduction in glucose level at 250 mg/kg, po measured after 1 hr. Format: functional. Also noted: scale not given: the % may be the effect or the level left.
The subject of data set [18] is Rattus norvegicus. Description: Hypoglycemic activity in 48 hrs fasted rat assessed as reduction in glucose level at 250 mg/kg, po measured after 2 hrs. Format: functional. Also noted: scale not given: the % may be the effect or the level left.
The subject of data set [19] is Rattus norvegicus. Description: Hypoglycemic activity in 48 hrs fasted rat assessed as reduction in glucose level at 250 mg/kg, po measured after 4 hrs. Format: functional. The arrangement: scale not given: the % may be the effect or the level left.
For data set [20], the system named is Rattus norvegicus. Description: Hypoglycemic activity in 48 hrs fasted rat assessed as reduction in glucose level at 200 mg/kg, po measured after 1 hr. Format: functional. Also noted: scale not given: the % may be the effect or the level left.
The test system of data set [21] is Rattus norvegicus. Description: Hypoglycemic activity in 48 hrs fasted rat assessed as reduction in glucose level at 200 mg/kg, po measured after 2 hrs. Format: functional. Also noted: scale not given: the % may be the effect or the level left.
Data set [22] relates to Rattus norvegicus. Description: Hypoglycemic activity in 48 hrs fasted rat assessed as reduction in glucose level at 200 mg/kg, po measured after 4 hrs. In kind it is functional. The arrangement: scale not given: the % may be the effect or the level left.

By half-life is commonly meant how long it takes for the measured level to halve. For `CC(C)(C)C(=O)Sc1cccnc1C(=O)O`, the Activity in the data set on Rattus norvegicus [1] was -20%; in the data set on Rattus norvegicus [2], -43%; with Rattus norvegicus [3] it was -70%; in the data set with Rattus norvegicus [4], 21%; with Rattus norvegicus [5], 42%; in the data set with Rattus norvegicus [6], 52%. Besides, the Activity was 0.006 h⁻¹ in [9] and 0.0114 h⁻¹ in data set [10]. The half-life was 115 h in data set [7] and 61.1 h in data set [8].
Regarding `O=C(Sc1cccnc1C(=O)O)c1ccccc1`, the Activity is -27% in the data set on Rattus norvegicus [1]; -42% in the data set with Rattus norvegicus [2]; -56% in the data set on Rattus norvegicus [3]; 0.0115 h⁻¹ in data set [9]; 0.0329 h⁻¹ in data set [10]. Besides, the half-life in [7] is 60.1 h; in data set [8], 21.1 h. Moreover, the Stability entry in data set [11] and in [12] was “Stable” each time.
As for `O=C(Sc1cccnc1C(=O)O)c1cccc(Cl)c1`, the Activity was -27% with Rattus norvegicus [1]; -32% in the data set with Rattus norvegicus [2]; -42% in the data set with Rattus norvegicus [3]; 0.0468 h⁻¹ in data set [9]; 0.148 h⁻¹ in data set [10]. For the same compound, the half-life was 14.8 h in data set [7] and 4.7 h in [8].
On to `O=C(Sc1cccnc1C(=O)O)c1ccccc1Cl`, for which the Activity with Rattus norvegicus [1] is -35%; in the data set on Rattus norvegicus [2], -39%; in the data set with Rattus norvegicus [3] it was -40%; in [9] it was 0.0091 h⁻¹; in [10], 0.0255 h⁻¹. The figures for the half-life in data set [7] and in data set [8] were 75.8 h and 27.2 h, respectively.
With `O=C(Sc1cccnc1C(=O)O)c1ccc(Cl)cc1`, the Activity with Rattus norvegicus [1] is -43%; with Rattus norvegicus [2], -34%; in the data set on Rattus norvegicus [3], -57%; in the data set with Rattus norvegicus [4] it was 12%; in the data set on Rattus norvegicus [5] it was 34%; in the data set on Rattus norvegicus [6] it was 40%. Further, the figures for the Activity in data set [9] and in data set [10] were 0.0261 h⁻¹ and 0.0879 h⁻¹, respectively. Moreover, the half-life in data set [7] was 26.6 h; in data set [8] it was 7.9 h.
For the compound `O=C(Sc1cccnc1C(=O)O)c1cccc(C(F)(F)F)c1`, the Activity with Rattus norvegicus [1] is -35%; in the data set on Rattus norvegicus [2] it was -38%; in the data set with Rattus norvegicus [3], 45%; in [9], 0.0695 h⁻¹; in data set [10], 0.179 h⁻¹. Moreover, the half-life is 10 h in [7] and 3.9 h in [8].
For the compound `CN(C)c1ccc(C(=O)Sc2cccnc2C(=O)O)cc1`, the values for the Activity in the data set on Rattus norvegicus [13], with Rattus norvegicus [14] and in the data set on Rattus norvegicus [15] were -12%, -2% and -8%, respectively.
For `O=C(O)c1ncccc1S`, in that order: -32%, -44% and -56%.
`O=C(Sc1cccnc1C(=O)O)c1ccc(C(F)(F)F)cc1`: the Activity in the data set with Rattus norvegicus [1] is -26%; with Rattus norvegicus [2], -54%; in the data set on Rattus norvegicus [3], -75%; in the data set with Rattus norvegicus [4], 28%; in the data set with Rattus norvegicus [5] it was 41%; with Rattus norvegicus [6] it was 32%. The Activity in data set [9] turned out to be 0.0688 h⁻¹; in data set [10], 0.231 h⁻¹. The half-life is 10.1 h in data set [7] and 3 h in data set [8].
In the case of `COc1cccc(C(=O)Sc2cccnc2C(=O)O)c1`, the Activity in the data set on Rattus norvegicus [1] is -15%; in the data set on Rattus norvegicus [2], -24%; in the data set with Rattus norvegicus [3], -30%; in data set [9], 0.0109 h⁻¹; in data set [10] it was 0.0583 h⁻¹. In addition, the half-life in data set [7] is 63.7 h; in [8], 11.9 h.
With `COc1ccc(C(=O)Sc2cccnc2C(=O)O)cc1`, the Activity was 16% in the data set with Rattus norvegicus [1]; -25% in the data set on Rattus norvegicus [2]; 19% with Rattus norvegicus [3]; 0.0038 h⁻¹ in [9]; 0.0158 h⁻¹ in data set [10]. Besides, the results for the half-life in data set [7] and in [8] were 182 h and 43.9 h, respectively.
As to `Cc1ccc(C(=O)Sc2cccnc2C(=O)O)cc1`, the Activity in the data set on Rattus norvegicus [1] is -21%; with Rattus norvegicus [2] it was -16%; with Rattus norvegicus [3] it was -4%; in data set [9], 0.0087 h⁻¹; in data set [10], 0.0271 h⁻¹. Further, the figures for the half-life in [7] and in [8] were 80.1 h and 25.6 h, respectively.
Regarding `O=C(Sc1cccnc1C(=O)O)c1ccc(F)cc1`, the Activity was -29% in the data set on Rattus norvegicus [1]; -47% in the data set on Rattus norvegicus [2]; -44% in the data set with Rattus norvegicus [3]; 0.0062 h⁻¹ in [9]; 0.0575 h⁻¹ in data set [10]. Besides, the half-life in data set [7] was 111 h; in data set [8], 12.1 h.
On to `O=C(Sc1cccnc1C(=O)O)c1ccc([N+](=O)[O-])cc1`, for which the Activity was 0% in the data set with Rattus norvegicus [1]; 0% with Rattus norvegicus [2]; 12% in the data set on Rattus norvegicus [3]; 0.147 h⁻¹ in [9]; 0.513 h⁻¹ in data set [10]. Besides, the results for the half-life in data set [7] and in [8] were 4.7 h and 1.4 h, respectively. The Stability in data set [16] was 24.3 mol%.
For the compound `N#Cc1ccc(C(=O)Sc2cccnc2C(=O)O)cc1`, the results for the Activity with Rattus norvegicus [13], in the data set with Rattus norvegicus [14] and in the data set with Rattus norvegicus [15] were -18%, -16% and 0%, respectively.
For `COC(=O)c1ccc(C(=O)Sc2cccnc2C(=O)O)cc1`, in that order: -17%, -20% and 1%.
For `NS(=O)(=O)c1ccc(C(=O)Sc2cccnc2C(=O)O)cc1`, in that order: 20%, -16% and 3%.
With `NC(=O)c1ccc(C(=O)Sc2cccnc2C(=O)O)cc1`, the Activity in the data set on Rattus norvegicus [13] is listed as -22%; in the data set with Rattus norvegicus [14], -6%; in the data set with Rattus norvegicus [15], -25%.
The like results for `CC(=O)Nc1ccc(C(=O)Sc2cccnc2C(=O)O)cc1` were, in that order, -18%, -14% and 7%.
Take `O=C(Nc1ccc(C(=O)Sc2cccnc2C(=O)O)cc1)c1ccccc1`: the values for the Activity in the data set with Rattus norvegicus [13], in the data set on Rattus norvegicus [14] and in the data set on Rattus norvegicus [15] were -20%, -20% and -4%, respectively.
Take `CCC(=O)Sc1cccnc1C(=O)O`: the Activity is 22% with Rattus norvegicus [17], 52% in the data set on Rattus norvegicus [18] and 55% in the data set with Rattus norvegicus [19].
For `CCCCCCCCCCC(=O)Sc1cccnc1C(=O)O`, the figures for the Activity in the data set with Rattus norvegicus [13], in the data set with Rattus norvegicus [14] and in the data set on Rattus norvegicus [15] were -14%, 3% and -9%, respectively.
Turning to `CCCCNC(=O)NS(=O)(=O)c1ccc(C)cc1` [TOLBUTAMIDE], the Activity was 28% in the data set on Rattus norvegicus [20], 47% in the data set on Rattus norvegicus [21] and 48% in the data set with Rattus norvegicus [22].
